Experimental data: US12006302B2, “Tau PET imaging ligands” (Janssen Pharmaceutica NV, priority 2016, dated 2024)

Assays:
[1] = molecular target: extracted human tau aggregates (Homo sapiens, UniProt P10636); assay: competitive radioligand binding assay, [3H]-T808 displacement
Method: Briefly, frozen human AD brain samples (˜10 g) were homogenized with 10 vol of cold homogenization buffer (10 mM Tris, 800 mM NaCl, 1 mM EGTA, 10% sucrose, pH 7.4 containing PhosSTOP phosphatase and cOmplete EDTA-free protease inhibitor (Roche, Vilvoorde, Belgium)) on ice. After centrifugation at 27 000×g for 20 min at 4° C. the supernatant was recovered and 1% (w/v) N-lauroylsarcosine and 1% (v/v) 2-mercaptoethanol were added. The N-lauroylsarcosine/2-mercaptoethanol supernatant was incubated for 2 h at 37° C. while shaking on an orbital shaker. Subsequently, ultracentrifugation at 108 000×g for 1.5 h at room temperature enriched aggregated tau in the pellet. Supernatant was removed and the pellet was carefully rinsed twice with a small amount of TBS (50 mM Tris, 150 mM NaCl, pH 7.4). […]
Briefly, aggregated tau preps were diluted to 100 μg protein/mi in PBS buffer with 5% ethanol. […] After overnight drying of the filter plate, Microscint O liquid (Perkin Elmer) was added and the amount of radiolabeled ligand bound to the fibrils is measured by liquid scintillation counting in a Topcount instrument (Packard Instrument Company, Connecticut, USA).
(§1) Values for half-maximal inhibitory concentration (IC50) were determined from displacement curves of at least two independent experiments using GraphPad Prism software (GraphPad Software, San Diego, CA).

[2] = molecular target: T1, extracted human amyloid-beta aggregates (Homo sapiens, UniProt P05067); assay: competitive radioligand binding assay, [3H]-AV-45 displacement
T1 construct: amyloid plaques which form by aggregation of beta-amyloid peptide; from tissue; host or cells: human AD brain, occipital cortex with high amyloid plaque load
T1 sequence (P05067 672-713 limits assumed): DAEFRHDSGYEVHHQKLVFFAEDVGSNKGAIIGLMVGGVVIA
Method: Enriched aggregated β-amyloid preps were prepared from frozen human AD brain samples (10 g—occipital cortex with high amyloid plaques load) that were homogenized with 7-fold vol of cold homogenization buffer (250 mM sucrose, 20 mM Tris base, 1 mM EDTA, 1 mM EGTA and PhosSTOP phosphatase and cOmplete EDTA-free protease inhibitor) on ice. After centrifugation at 27 000×g for 20 min at 4° C. cell debris was removed. Supernatant containing amyloid plaques was aliquoted and stored at −80° C.
The competitive radioligand binding assays measure the binding of a radiolabeled reference ligand in the presence of a dose response concentration range of test compounds.
as §1
To determine compound binding to aggregated β-amyloid a similar assay was put in place but with some minor modifications. […] Nonspecific binding was determined in the presence of 500 μM Thioflavin T. After 150 min incubation at room temperature, the binding mixtures were filtered over GF/B glass filters. […]

[3] = test system: NFTs / cortical tau-rich regions; assay: digital autoradiography with [18F]Co. No. 1 on human AD visual cortex slices, with blocking; format: binding; conditions: for inhibition of [18F]Co. No. 1 binding: blocker 1 μM, human AD visual cortex slices
Method: Adjacent slices were immunostained for tau pathology (B, AT8) and for amyloid beta pathology (C, 4G8).
a) Air-dried frozen, 10-μm-thick slices of the visual cortex of an AD-patient (with Braak stage V-VI) were incubated for 60 min with [^18F]Co. No. 1 (7.4 kBq/500 μL per slice) and subsequently washed with mixtures of PBS and ethanol as described elsewhere (Xia C. F., Arteaga J., Chen G., et al. Alzheimer's Dement. 2013, 1-11). To assess specificity of binding, slices were incubated with tracer in the presence of 1 μM of authentic T808 or Co. No. 1. After drying, slices were exposed to a phosphor storage screen (super-resolution screen, Perkin Elmer). Screens were read in a Cyclone Plus system (Perkin Elmer, Waltham, MA, U.S.A.) and analyzed using Optiquant software. Results are expressed as digital light units per square mm (DLU/mm^2). Adjacent AD slices were immunostained with anti-tau (AT8) and anti-Aβ antibodies (4G8), to correlate with [^18F]Co. No. 1 binding.

MAO = assay: in vitro binding of tritiated tracers to MAO-rich human tissue (striatum); conditions: cold compound 10 μM; 10 nM [3H]-THK-5351
Method: The tracer was tested at 10 nM and higher concentrations were not investigated in this study.
In comparison, the tau tracer [^3H]-THK-5351 and the Aβ tracer [^3H]-AV-45 were used as THK-5351 is known to also bind MAO.

[4] = test system: tau pathology in human AD slices; assay: [18F]Co. No. 1 binding to human AD tissue in the presence of MAO binders; conditions: 0.2 mCi/mL tracer; for effect on [18F]Co. No. 1 binding pattern in human AD slices: compound 10 μM
Method: c) Binding of [^18F] Co. No. 1 to human AD tissue was assessed in the presence of reported MAO binders. […] This binding pattern was maintained when the sample was incubated with 10 μM of clorgiline, a strong irreversible MAO binder with moderate selectivity for the A-subtype (FIG. 7B), or 10 μM selegiline (=deprenyl), a strong irreversible MAO-B binder (FIG. 7C). The binding of [^18F] […] Adjacent AD slices were immunostained with anti-tau (AT8) and anti-Aβ (4G8) antibodies to correlate with [^18F]Co. No. 1 binding (FIG. 8).

aggregated tau = aggregated tau (Homo sapiens, UniProt P10636); conditions: literature; cited from earlier work
aggregated tau, sequence (P10636 1-441 isoform P10636-8): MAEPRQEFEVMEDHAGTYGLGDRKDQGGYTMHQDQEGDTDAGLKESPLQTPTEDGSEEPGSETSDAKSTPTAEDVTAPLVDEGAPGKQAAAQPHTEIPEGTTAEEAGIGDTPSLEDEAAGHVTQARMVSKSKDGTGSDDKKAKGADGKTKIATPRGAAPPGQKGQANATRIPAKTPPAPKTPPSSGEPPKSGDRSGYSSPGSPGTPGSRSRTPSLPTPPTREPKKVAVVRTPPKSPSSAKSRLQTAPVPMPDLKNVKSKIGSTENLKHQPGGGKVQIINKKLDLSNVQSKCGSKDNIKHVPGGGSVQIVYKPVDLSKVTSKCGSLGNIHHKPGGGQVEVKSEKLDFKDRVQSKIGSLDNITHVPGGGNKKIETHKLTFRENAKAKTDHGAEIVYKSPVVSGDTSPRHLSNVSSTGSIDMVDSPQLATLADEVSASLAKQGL

[5] = microPET imaging, Wistar rats; format: in vivo, Wistar rat; conditions: for SUV value at 60 min p.i. (brain wash-out) / initial brain uptake, high intensity SUV value in the brain: baseline scan, whole brain; for initial brain uptake, high intensity SUV value in the brain: IV about 50 MBq; for effect of pre-treatment / chase with cold compound on brain uptake: pre-treatment 10 mg/kg SC 60 min before, chase 1 mg/kg IV 30 min after tracer
Method: Three separate studies are shown: a baseline scan (only tracer), a pre-treatment experiment (cold Co. No. 1 or T807, 10 mg/kg injected subcutaneously 60 min prior to radiotracer injection), and a chase study (cold Co. No. 1 or T807, 1 mg/kg injected intravenously 30 min after radiotracer injection).
A dynamic 120-min μPET scan with [^18F]Co. No. 1 or [^18F]T807 was acquired on a Focus 220 μPET scanner (Concorde Microsystems, Knoxville, TN, U.S.A.) on three female Wistar rats simultaneously. The rats were kept under gas anaesthesia during the whole procedure (2.5% isoflurane in O2 at 1 L/min flow rate). Scans were acquired in list mode and acquisition data were Fourier rebinned in 24 time frames (4×15 s, 4×60 s, 5×180 s, 8×300 s, 3×600 s). Data, which were 3D maximum a posteriori (3D-MAP) reconstructed, were manually aligned with a rat brain ^18F-FDG template in Paxinos coordinates using an affine transformation, to allow predefined volumes of interest (VOIs) analysis (Casteels C., et al. J. Nucl. Med. 2006, 47, 1858-1866). Time-activity curves (TACs) of the whole brain were generated using VOIs with PMOD software (v 3.2, PMOD Technologies, Zürich, Switzerland). Radioactivity concentration in the brain was expressed as standardized uptake value (SUV, calculated as (radioactivity in Bq in brain/mL)/(total injected dose (Bq)/body weight in g)) as a function of time after tracer injection. Scans were started immediately after IV injection of about 50 MBq radiotracer (n=3/tracer). For pre-treatment and displacement studies, cold reference compound Co. No. 1 or T807 was dissolved in a mixture of 5% DMSO, 5% Tween 80 and 40% (2-hydroxypropyl)-β-cyclodextrin, filtered through a 0.22-μm membrane filter (Millex-GV. Millipore) prior to injection. Pre-treatment (n=1) was done by subcutaneous (SC) injection of 10 mg/kg of Co. No. 1 or T807, 60 min prior to radiotracer injection. Displacement (n=1) was performed by IV injection of 1 mg/kg Co. No. 1 or T807 30 min after radiotracer injection. μPET images were compared to a baseline scan (n=1), acquired in a non-treated rat.

[6] = microPET imaging, rhesus monkey; format: in vivo, rhesus monkey (Macaca mulatta); conditions: baseline scan; for initial brain uptake, SUV value: total brain, IV 185 MBq
Method: A dynamic 120-min μPET scan with [^18F]Co. No. 1 or [^18F]T807 was performed with a Focus 220 μPET scanner on a rhesus monkey (6 y-old male Macaca mulatta, 7.6 kg), that was sedated with ketamine (Ketalar®) and xylazine (Rompun®) via intramuscular (IM) injection. During scanning the monkey received repeatedly an additional dose of ketamine/xylazine via IV injection. O2 saturation in blood, breathing frequency and heartbeat frequency were monitored during the entire experiment. The head of the animal was placed central in the field of view of the μPET scanner. Scans were acquired in list mode and Fourier rebinned in 24 time frames (4×15 s, 4×60 s, 5×180 s, 8×300 s, 3×600 s). Data were reconstructed using a 3D maximum a posteriori (3D-MAP) iterative reconstruction. TACs of the whole brain were generated using VOIs with PMOD software. Radioactivity concentration in the brain is expressed as SUV as a function of time after tracer injection. Scans were started immediately after IV injection of 185 MBq of [^18F]Co. No. 1 or [^18F]T807 via the vena saphena of the right leg. For the pre-treatment study, cold reference compound Co. No. 1 was dissolved in a mixture of 10% DMSO and 40% (2-hydroxypropyl)-o-cyclodextrin, filtered through a 0.22-μm membrane filter (Millex-GV, Millipore) prior to injection. Pre-treatment (n=1) was done by IV co-injection of 1 mg/kg of cold Co. No. 1 and radiotracer solution. μPET images were compared to a baseline scan (n=1), acquired in the non-treated monkey.

extracted human tau aggregates, sequence (P10636 623-695 limits assumed): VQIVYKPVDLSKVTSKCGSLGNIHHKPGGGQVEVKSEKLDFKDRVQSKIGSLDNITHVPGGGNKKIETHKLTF

With `Cc1cnc(Nc2ccc3cnccc3c2)cc1F` [Co. No. 1] the IC50 ([1]; displacement of [3H]-T808 (10 nM), read-out: pIC50, binding to extracted human tau aggregates (converted)) was 5.75 nM, the Ki ([1]; displacement of [3H]-T808, read-out: Ki corresponding to pIC50, extracted human tau (converted)) was 2.4 nM and the IC50 ([2]; displacement of [3H]-AV-45 (10 nM), read-out: pIC50, binding to extracted human amyloid-beta aggregates (converted)) was 6610 nM. For the same compound, the Ki ([2]; displacement of [3H]-AV-45, read-out: Ki corresponding to pIC50, extracted human amyloid-beta aggregates (converted)) was 3200 nM, the “inhibition of [18F]Co. No. 1 binding” value [3] was 99% and the “blocking of [3H]-THK-5351 binding to MAO-rich human tissue” value (MAO) was “blocked”. For the same compound, the “effect on [18F]Co. No. 1 binding pattern in human AD slices” value (from here on “effect on [18F]Co. No. 1 binding pattern”) [4] was “entirely blocked” and the melting point was 182.53 °C.
For `FCCC1CCN(c2ccn3c(n2)nc2ccccc23)CC1` [T808], the “inhibition of [18F]Co. No. 1 binding” value [3] is given as 99%, the Kd (aggregated tau) is given as 22 nM and the “selectivity for tau over Aβ aggregates” value (aggregated tau) is given as 27 fold.
With `C#CCN(C)CCCOc1ccc(Cl)cc1Cl` [clorgiline, reference compound] the “effect on [18F]Co. No. 1 binding pattern” value [4] was “maintained”.
Compound `Cl.FCCCNc1ccc(Nc2ccc3cnccc3c2)nc1` has a melting point of 285.1 °C.
With `C#CCN(C)[C@H](C)Cc1ccccc1` [selegiline, reference compound] the “effect on [18F]Co. No. 1 binding pattern” value [4] was “maintained”.
With `Cc1cnc(Nc2ccc3cnccc3c2)cc1[18F]` [[^18F]Co. No. 1] the “tracer binding in digital autoradiography” value ([3]; 7.4 kBq/500 μL per slice, human AD slices) was “high and selective binding to cortical tau-rich regions”, the “tracer binding to tau pathology in human AD slices” value [4] was “strong binding” and the “SUV value at 60 min p.i. (brain wash-out)” value [5] was 0.2. The “initial brain uptake, high intensity SUV value in the brain” value [5] was about 2.0, the “effect of pre-treatment / chase with cold compound on brain uptake” value [5] was “No self-blocking or self-chase effect” and the brain wash-out [6] was “rapid wash-out”. For the same compound, the “distribution over brain regions” value [6] was “homogeneous distribution” and the “initial brain uptake, SUV value” [6] was about 5.4.
With `CN(CCF)c1ccc(Nc2ccc3cnccc3c2)nc1` [Co. No. 6] the melting point was 146.3 °C.
Compound `Cl.FCCCOc1ccc(Nc2ccc3cnccc3c2)nc1` has a melting point of 249.3 °C.
In the case of `FCCc1ccc(Nc2ccc3cnccc3c2)nc1` [Co. No. 3], the melting point is reported as 208.5 °C.
With `FCCOc1ccc(Nc2ccc3cnccc3c2)nc1` [Co. No. 9] the melting point was 104.6 °C.
In the case of `[18F]c1ccc(-c2ccc3c(c2)[nH]c2ccncc23)cn1` [[^18F]T807, reference compound], the “SUV value at 60 min p.i. (brain wash-out)” value [5] is reported as 0.4, the “initial brain uptake, high intensity SUV value in the brain” value [5] is reported as about 1.8 and the “effect of pre-treatment / chase with cold compound on brain uptake” value [5] is reported as “Lower brain uptake during the baseline scan”. The brain wash-out [6] was “slower” and the “initial brain uptake, SUV value” [6] was about 1.3.
For `CNc1ccc(-c2ccc3cc(OC[C@H](O)CF)ccc3n2)cn1` [THK-5351, reference compound], the “blocking of [3H]-THK-5351 binding to MAO-rich human tissue” value (MAO) was “self-blocked”.
With `Cc1ccc(Nc2ccc3cnccc3c2)nc1F` [Co. No. 2] the melting point was 203.3 °C.
Work on `FCOc1ccc(Nc2ccc3cnccc3c2)nc1` [Co. No. 4] yielded a melting point of 173.1 °C.
Work on `FCCNc1ccc(Nc2ccc3cnccc3c2)nc1` [Co. No. 5] yielded a melting point of 191.4 °C.
